Measurements taken from US20190008864A1, “PHARMACEUTICAL COMPOSITION CONTAINING GPR119 LIGAND AS EFFECTIVE INGREDIENT FOR PREVENTING OR TREATING NON-ALCOHOLIC STEATOHEPATITIS” (PHARMEDIX.CO., LTD., priority 2014, published 2019).

What was measured:
SREBP-1c = assay: SREBP-1C expression in HepG2 under high glucose/insulin with GPR119 ligand plus AMPK or PKA inhibitor; format: cell-based, human
Description: (§1) Sodium dodecyl sulfate-polyacrylamide gel electrophoresis (SDS-PAGE) was carried out by means of a gel electrophoresis device (Mighty Small SE 250, Hoefer Scientific Instruments, San Francisco) according to a method by Laemmli (UK, Nature 227, 680-685, 1970). Each of cell lysate fractions was diluted with a buffer solution for sample dilution [63 mM Tris (pH. 6.8), 10% glycerol, 2% SDS, 0.0013% bromophenol blue, and 5% β-mercaptoethanol], and then electrophoresed on a 8% or 10% gel in an electrode buffer solution (1 l of the solution contained 15 g of Tris, 72 g of glycerin, and 5 g of SDS). […] Whether total protein contents in samples are the same is determined using anti-β-actin and anti-LaminA/C antibodies. Changes in protein expression amounts were determined by measuring the intensities of chemiluminescence signals on the blot by means of densitometry. […] Each lane was calculated using AlphaEase™ version 5.5 software and background intensity was removed from the calculated values. […]
An experiment therefor was performed as follows. […] Protein expression change was measured using the western blotting method of the method D.

FAS mRNA = FAS mRNA expression after T0901317 treatment, HepG2 (real time PCR); format: cell-based, human; settings: 10 μM T0901317 alone
Description: (§2) A 6-well plate was inoculated with HepG2 (ATCC, US), as a human hepatocyte line, and cultured until confluence in a DMEM medium containing 1% penicillin-streptomycin (Hyclone, US) and 10% fetal bovine serum (Hyclone, US) in a 5% CO2 incubator at 37° C. The medium containing 10% fetal bovine serum of the hepatocyte line grown to confluence was replaced by a medium not containing FBS. The cell line was additionally cultured for 18 hours and used as a sample for an experiment.
(§3) 1 ml of a TRIzol solution was added to each of cell samples to lyse the cells. Subsequently, centrifugation was carried out at 4° C. and 12,000×g for 10 minutes. […]
(§4) A supernatant was transferred to a new tube and then isopropanol was added thereto in the same amount as the supernatant. […] The concentration of an extracted RNA sample was measured at wavelengths of 260 nm and 280 nm by means of a UV/VIS spectrum analyzer (Nanodrop, Thermo, US) and cDNAs were synthesized therefrom using an RT kit. […]
(§5) A medium containing the GPR119 ligand (MBX-2982, GSK-1292263A) was added to a human hepatocyte line (HepG2) cultured as in the method C and, 30 minutes later, the cell line was treated with 10 μM T0901317 for nine hours. […] To investigate mRNA expression change in SCD-1 and FAS, RNAs were isolated and cDNAs were synthesized therefrom as in the method E. mRNA expression levels were measured using real time-PCR as in the method F.

SREBP-1c protein [1] = assay: SREBP-1c expression after T0901317 treatment, HepG2 (western blot); format: cell-based, human; settings: 10 μM T0901317 alone, nine hours, compared to no treatment
Description: as §2
as §1, with “1970).” for “1970). Each of cell lysate fractions was diluted with a buffer solution for sample dilution [63 mM Tris (pH. 6.8), 10% glycerol, 2% SDS, 0.0013% bromophenol blue, and 5% β-mercaptoethanol], and then electrophoresed on a 8% or 10% gel in an electrode buffer solution (1 l of the solution contained 15 g of Tris, 72 g of glycerin, and 5 g of SDS).”

SREBP-1c protein [2] = assay: SREBP-1c expression after T0901317 treatment, primary hepatocytes (western blot); format: cell-based, mouse; settings: 10 μM T0901317 alone, nine hours, compared to no treatment
Description: Liver cells were collected from male C57BL/6 mice (Central Lab. Animal Inc., Seoul) according to a method by Seglen et al. (Exp Cell Res., 82, pp 391-398, 1973). Each C57BL/6 mouse was anesthetized and then the abdomen thereof was incised. Subsequently, the hepatic portal vein was intubated and a gas mixture of 5% CO2 and 95% O2 was insufflated thereinto. A Ca^2+ and Mg^2+-free Hank's balanced salt solution at 37° C. was flowed into the tube to remove blood in the liver. Subsequently, a 0.1% collagenase type IV (Sigma, US) solution was flowed thereinto. The liver tissue was removed from the body, and then prepared into a hepatocyte suspension. The prepared hepatocyte suspension was centrifuged at 50×g for two minutes. […]
Sodium dodecyl sulfate-polyacrylamide gel electrophoresis (SDS-PAGE) was carried out by means of a gel electrophoresis device (Mighty Small SE 250, Hoefer Scientific Instruments, San Francisco) according to a method by Laemmli (UK, Nature 227, 680-685, 1970). […] Whether total protein contents in samples are the same is determined using anti-β-actin and anti-LaminA/C antibodies. Changes in protein expression amounts were determined by measuring the intensities of chemiluminescence signals on the blot by means of densitometry. […] Each lane was calculated using AlphaEase™ version 5.5 software and background intensity was removed from the calculated values. […]

SCD-1 mRNA = SCD-1 mRNA expression after T0901317 treatment, HepG2 (real time PCR); format: cell-based, human; settings: 10 μM T0901317 alone
Description: as §2, §3, §4, §5

[3] = test system: mouse liver tissue and hepatocyte line; assay: Summary statement: mouse liver tissue and hepatocyte line treated with the two GPR119 ligands; format: cell-based
[4] = test system: fatty liver model induced by a high-fat diet; assay: Fatty liver model induced by high-fat diet; format: in vivo, C57BL/6J mice; settings: animal models fed with a high-fat diet
From the text: In the present invention, a high fat diet (HFD: 60% fat calories, Research diets, D12492, US) was used as an obesity induction diet.
Six-week-old male C57BL/6J mice (Central Lab. Animal Inc., Seoul, Korea) were acclimated to an experimental environment for one week while being fed solid food, and then randomly divided into a control group and an experimental group for a high-fat diet using a randomized block design. The animal groups were fed for 12 weeks, and thus, fatty liver animal models were established. Fatty liver development was determined according to blood biochemical and histochemical analysis methods. The mice were orally fed with the high-fat diet only for six weeks, and in combination with a GPR119 ligand (10 mg/kg) suspended in 40% PEG400 once a day for five days every week. Choline-deficient, amino acid-fixed high-fat diet steatohepatitis models were prepared by feeding six-week-old male C57BL/6J mice (Central Lab. Animal Inc., Seoul) with a diet containing 60 kcal fat and 0.1% methionine for four weeks. After terminating the experiment, experimental animals fasted for 12 hours or more. Subsequently, blood, liver, and adipose tissues in intestines (epididymal fat, kidney-surrounding fat) were collected from the animals that had been anesthetized with diethyl ether and then washed with a 0.1 M phosphate buffered saline (pH 7.4), followed by being weighed. Blood collected from abdominal aortas was centrifuged at 3000 rpm for 20 minutes using SST tubes to separate serum.
A total cholesterol concentration and a total glucose concentration in serum from each of the aforementioned experimental animals raised for 12 weeks were measured as follows. Each of the total cholesterol concentration and the total glucose concentration in serum was measured twice by means of a commercial measurement kit (Bio Clinical Systems). The amount of alanine aminotransferase (ALT) in blood used as a liver function index was measured by means of a commercial analysis kit (Bio Clinical Systems, Korea).
The collected liver tissues were fixed with a 10% neutral formalin solution and then subjected to a common fixation procedure and dehydration process, followed by embedding the same in paraffin. The embedded tissues were sectioned to a thickness of 4 μm and stained with H&E. The stained tissues were observed by means of an optical microscope.
A predetermined amount of each of the liver tissues was homogenized in liquid nitrogen and a cell lysis buffer in a mortar, and then a lysed tissue solution was transferred to a new tube, followed by vortexing. […] A middle layer of the centrifuged solution was collected and then subjected to protein quantification by the Bradford assay. […] Expression changes of FAS and SREBP-1c proteins were measured by western blotting. […]

O=S(=O)(NCCNC/C=C/c1ccc(Br)cc1)c1cccc2cnccc12 [H-89]
function of the GPR119 ligand affecting SREBP-1C upon PKA inhibitor treatment (SREBP-1c; 3 μM GPR119 ligand plus H-89): not affected

O=S(=O)(c1ccccc1)N(CC(F)(F)F)c1ccc(C(O)(C(F)(F)F)C(F)(F)F)cc1 [T0901317, N-(2,2,2-Trifluoroethyl)-N-[4-[2,2,2-trifluoro-1-hydroxy-1-(trifluoromethyl)ethyl]phenyl]benzenesulfonamide]
mRNA expression level of FAS (FAS mRNA): increased | expression level of SREBP-1c (SREBP-1c protein [1]): greatly increases | expression level of SREBP-1c (SREBP-1c protein [2]): greatly increases | mRNA expression level of SCD-1 (SCD-1 mRNA): increased

c1cc(-c2cnn3cc(-c4ccc(OCCN5CCCCC5)cc4)cnc23)ccn1 [Compound C]
SREBP-1C expression inhibition due to MBX2982 upon AMPK inhibitor treatment (SREBP-1c; 3 μM MBX2982 plus Compound C): recovered

CC(C)c1noc(N2CCC(COc3ccc(-c4ccc(S(C)(=O)=O)cc4)nc3)CC2)n1 [GSK1292263, 3-isopropyl-5-(4-(((6-(4-(methylsulfonyl)phenyl)pyridin-3-yl)oxy)methyl)piperidin-1-yl)-1,2,4-oxadiazole]
activity of SREBP-1c [3]: inhibited | expression of GPR119 [3]: increased | expression of acetyl CoA carboxylase (ACC) [3]: inhibited | expression of fatty acid synthase (FAS) [3]: inhibited | expression of stearoyl-CoA desaturase (SCD) [3]: inhibited | fatty liver development [4]: completely inhibited
